Data as given in patent publication US4798811A, “Combination preparation” (BASF Aktiengesellschaft, priority 1986, dated 1989).

Experiments:
thrombocyte aggregation [1] = test: Ex vivo inhibition of thrombocyte aggregation after oral administration to five test persons; type: in vivo; details: four hours after administration
Experimental: (§1) The following methods were used:
(§2) Venous blood was taken from four test persons and rendered unclottable by adding citrate, and thrombocyte-rich plasma was then obtained from this blood by centrifuging under 300 g for 10 minutes at 4° C. The addition of adrenalin (final concentration 5×10^-8 mole/liter) and collagen (final concentration 2×10^-3 g/liter) to the thrombocyte-rich plasma caused aggregation, which was measured as the change in extinction using a Born aggregometer MK 3. The maximum change in extinction per second was used as a measure of aggregation. The percentage inhibition of aggregation was determined by comparing the values before and after administration of the substance.
2. Ex vivo investigations
The candidate compounds were filled into stomach-soluble gelatine capsules and administered orally to five test persons. Venous blood was taken before administration of the substances and four hours after administration. This blood was prepared as under 1 and made to aggregate. The percentage inhibition of aggregation was determined by comparing the values before and after administration of the substance.

thrombocyte aggregation [2] = test: In vitro inhibition of thrombocyte aggregation induced by adrenalin and collagen in thrombocyte-rich plasma; type: cell-based, test persons
Experimental: as §1
1. In vitro investigations
as §2

Q: For COc1ccc(CCN(C)CCCC(C#N)(c2ccc(OC)c(OC)c2)C(C)C)cc1OC (stereo not drawn) [Verapamil, 1,7-bis-(3,4-dimethoxyphenyl)-3-methylaza-7-cyano-8-methylnonane], which “Aggregation inhibition (%)” value (thrombocyte aggregation [1]; oral Dosage 240 mg) is on record?
A: 33%

Q: What about the inhibition at 2 µg/mL (thrombocyte aggregation [2]; Conc. 2 mg/l, adrenalin 5×10^-8 mole/liter and collagen 2×10^-3 g/liter) of the same molecule?
A: 8.7%

Q: And the inhibition at 10 µg/mL (thrombocyte aggregation [2]; Conc. 10 mg/l, adrenalin 5×10^-8 mole/liter and collagen 2×10^-3 g/liter)?
A: 31%

Q: Which results are given for CC(=O)Oc1ccccc1C(=O)O [ASA, acetylsalicylic acid]?
A: Aggregation inhibition (%) (thrombocyte aggregation [1]; oral Dosage 60 mg): 0%; inhibition at 1 µg/mL (thrombocyte aggregation [2]; Conc. 1 mg/l, adrenalin 5×10^-8 mole/liter and collagen 2×10^-3 g/liter): 0%; aggregation inhibition (in words) (thrombocyte aggregation [2]; dose of 1.0 mg/l): ineffective
